Laboratory results: ChEMBL document CHEMBL3352715, “Synthesis of new verapamil analogues and their evaluation in combination with rifampicin against Mycobacterium tuberculosis and molecular docking studies in the binding site of efflux protein Rv1258c” (2014)

Experiments:
[1] = system: Mycobacterium tuberculosis; assay: Inhibition of multidrug resistance efflux pump Rv1258c in Mycobacterium tuberculosis H37Rv assessed as rifampicin MIC99 by MABA method
[2] = system: Mycobacterium tuberculosis; assay: Inhibition of multidrug resistance efflux pump Rv1258c in Mycobacterium tuberculosis H37Rv assessed as reduction in rifampicin MIC99 by MABA method
[3] = system: Mycobacterium tuberculosis; assay: Inhibition of multidrug resistance efflux pump Rv1258c in Mycobacterium tuberculosis H37Rv assessed as potentiation of rifampicin-induced antimycobacterial activity by MABA method based Chequerboard synergy assay

COc1ccc(C(C#N)(CCCN2CCN(c3ccccn3)CC2)C(C)C)cc1OC (centres undefined)
MIC99 [1]: 2.1 nM
fold change (FC) [2]: 4
fractional inhibitory concentration index (FICI) [3]: 0.75

COc1ccc(CCN(CCCC(C#N)(c2ccc(OC)c(OC)c2)C(C)C)C2CC2)cc1OC (centres undefined)
MIC99 [1]: 4.2 nM
fold change (FC) [2]: 2
fractional inhibitory concentration index (FICI) [3]: 0.75

COc1ccc(CCN(C)CCCC(C#N)c2ccc(OC)c(OC)c2)cc1OC (centres undefined)
MIC99 [1]: 4.2 nM
fold change (FC) [2]: 2
fractional inhibitory concentration index (FICI) [3]: 1

COc1ccc(N(C)CCCC(C#N)(c2ccc(OC)c(OC)c2)C(C)C)cc1OC (centres undefined)
MIC99 [1]: 8.3 nM

COc1ccc(CCN(C)CCCC(C)(C#N)c2ccc(OC)c(OC)c2)cc1OC (centres undefined)
MIC99 [1]: 4.2 nM
fold change (FC) [2]: 2
fractional inhibitory concentration index (FICI) [3]: 1

COc1ccc(C(C#N)(CCCN2CCOCC2)C(C)C)cc1OC (centres undefined)
MIC99 [1]: 8.3 nM
fractional inhibitory concentration index (FICI) [3]: 1.5

COc1ccc(C(C#N)(CCCN2CCN(c3ccccc3F)CC2)C(C)C)cc1OC (centres undefined)
MIC99 [1]: 8.3 nM
fractional inhibitory concentration index (FICI) [3]: 1.5

COc1ccc(C(C#N)(CCCN2CCCCC2)C(C)C)cc1OC (centres undefined)
MIC99 [1]: 4.2 nM
fold change (FC) [2]: 2
fractional inhibitory concentration index (FICI) [3]: 1

CCCN(CCCC(C#N)(c1ccc(OC)c(OC)c1)C(C)C)CCc1ccc(OC)c(OC)c1 (centres undefined)
MIC99 [1]: 8.3 nM
fractional inhibitory concentration index (FICI) [3]: 0.78

COc1ccc(C(C#N)(CCCN2CCC(O)CC2)C(C)C)cc1OC (centres undefined)
MIC99 [1]: 8.3 nM
fractional inhibitory concentration index (FICI) [3]: 1.5

CCN(CCCC(C#N)(c1ccc(OC)c(OC)c1)C(C)C)CCc1ccc(OC)c(OC)c1 (centres undefined)
MIC99 [1]: 8.3 nM
fractional inhibitory concentration index (FICI) [3]: 1

COc1ccc(CCN(C)CCCC(C#N)(c2ccc(OC)c(OC)c2)C2CCCCC2)cc1OC (centres undefined)
MIC99 [1]: 2.1 nM
fold change (FC) [2]: 4
fractional inhibitory concentration index (FICI) [3]: 1.25

COc1ccc(CCN(CCCC(C#N)(c2ccc(OC)c(OC)c2)C(C)C)Cc2ccccc2)cc1OC (centres undefined)
MIC99 [1]: 2.1 nM
fold change (FC) [2]: 4
fractional inhibitory concentration index (FICI) [3]: 0.3

CCCC(C#N)(CCCN(C)CCc1ccc(OC)c(OC)c1)c1ccc(OC)c(OC)c1 (centres undefined)
MIC99 [1]: 2.1 nM
fold change (FC) [2]: 4
fractional inhibitory concentration index (FICI) [3]: 0.75

CCC(C#N)(CCCN(C)CCc1ccc(OC)c(OC)c1)c1ccc(OC)c(OC)c1 (centres undefined)
MIC99 [1]: 2.1 nM
fold change (FC) [2]: 4
fractional inhibitory concentration index (FICI) [3]: 0.75

COc1ccc(CN(C)CCCC(C#N)(c2ccc(OC)c(OC)c2)C(C)C)cc1OC (centres undefined)
MIC99 [1]: 8.3 nM

COc1ccc(C(C#N)(CCCN2CCC(N3CCCCC3)CC2)C(C)C)cc1OC (centres undefined)
MIC99 [1]: 4.2 nM
fold change (FC) [2]: 2
fractional inhibitory concentration index (FICI) [3]: 1

COc1ccc(C(C#N)(CCCN2CCN(c3ccccc3)CC2)C(C)C)cc1OC (centres undefined)
MIC99 [1]: 4.2 nM
fold change (FC) [2]: 2
fractional inhibitory concentration index (FICI) [3]: 0.75

COc1ccc(CCNCCCC(C#N)(c2ccc(OC)c(OC)c2)C(C)C)cc1OC (centres undefined) [NORVERAPAMIL]
MIC99 [1]: 4.2 nM
fold change (FC) [2]: 2
fractional inhibitory concentration index (FICI) [3]: 0.56

COc1ccc(C(C#N)(CCCN2CCC(O)(c3ccccc3)CC2)C(C)C)cc1OC (centres undefined)
MIC99 [1]: 4.2 nM
fold change (FC) [2]: 2
fractional inhibitory concentration index (FICI) [3]: 1

COc1ccc(CCN(C)CCCC(C#N)(c2ccc(OC)c(OC)c2)C2CCCC2)cc1OC (centres undefined)
MIC99 [1]: 4.2 nM
fold change (FC) [2]: 2
fractional inhibitory concentration index (FICI) [3]: 1
